What was measured:
LPL:sGPIHBPI complex = target: T1, LPL:sGPIHBPI complex (Homo sapiens, UniProt P06858); assay: VLDL assay (LPL:sGPIHBP1 pre-incubated with ANGPTL4, VLDL substrate, Amplex Red readout); format: biochemical; conditions: read-out: VLDL qAC50
T1 sequence (P06858 28-475): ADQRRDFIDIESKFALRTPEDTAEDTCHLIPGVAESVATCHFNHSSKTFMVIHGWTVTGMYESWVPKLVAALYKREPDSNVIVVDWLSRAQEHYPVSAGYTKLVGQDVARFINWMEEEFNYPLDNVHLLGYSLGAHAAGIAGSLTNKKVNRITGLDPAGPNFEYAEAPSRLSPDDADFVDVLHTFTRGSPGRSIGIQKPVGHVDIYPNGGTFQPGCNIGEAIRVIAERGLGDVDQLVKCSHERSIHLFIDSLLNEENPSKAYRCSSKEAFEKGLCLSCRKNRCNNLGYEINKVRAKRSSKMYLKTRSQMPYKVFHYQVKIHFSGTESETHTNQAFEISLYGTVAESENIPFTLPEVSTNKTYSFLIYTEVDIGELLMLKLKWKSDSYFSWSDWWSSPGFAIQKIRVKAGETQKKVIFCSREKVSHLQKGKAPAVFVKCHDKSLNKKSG
T1 sequence (Q8IV16 21-151 partner limits assumed): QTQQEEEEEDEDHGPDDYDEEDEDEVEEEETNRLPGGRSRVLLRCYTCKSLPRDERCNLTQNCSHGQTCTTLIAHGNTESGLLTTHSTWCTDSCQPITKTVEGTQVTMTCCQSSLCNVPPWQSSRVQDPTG
Description: The assay was performed in black I536-well plates using purified proteins. To identify compounds that stimulate LPL activity either by directly activating LPL or by inhibiting the antagonist ANGPTL4, the LPL:sGPIHBPI complex was pre-incubated with ANGPTL4 to decrease LPL activity by 80%. After a 60 min pre-incubation, the coupled enzyme system supplemented with Amplex Red reagent was added. The enzymatic reaction was started by adding the VLDL substrate. 120 min after VLDL addition, the reaction was stopped using SDS and the fluorescence intensity was measured.
40 or 45 nl of compound solution in 100% DMSO were placed in test plate. Then LPL:sGPIHBPI was added to all wells (diluted in assay buffer to 80 nM; 1 μl/well). This was followed by an addition of ANGPTL4 to compounds and neutral controls (diluted in assay buffer to 84 nM; 1 μl/well). The assay buffer was added to stimulator control (1 μl/well). Then the plates were centrifuged and pre-incubated 60 min at RT. A NEFA (1:2 diluted in PBS) supplemented with Amplex Red (40 μM was further added to all wells (1 μl/well). The reaction was then started by adding substrate to all wells (diluted in VLDL buffer to 16 Vg/ml, 1 μl/well). The plates were further centrifuged (800 rpm for 1 my) and incubated 120 m at RT (=reaction time). The reaction was then by adding SDS to all wells (diluted in water to 2.5%, 2 μl/well) and further incubated 30 mi at RT. The fluorescence intensity (ex 540 nm/em 590 nm) was measured on a Pherastar (BMG) using 20 flashes.

[1] = target: T2, LPL (native bovine milk protein) inactivated by ANGPTL4 (Bos taurus, UniProt P11151); assay: LPL ANGPTL4 protection assay (LPL fluorescence assay, resorufin butyrate substrate); format: biochemical; conditions: LPL activation activity, LPL 2.5 nM, ANGPTL4 20 nM
T2 construct: from tissue; host or cells: bovine milk (LPL); E. coli (GST-ANGPTL4)
T2 sequence (P11151 29-478): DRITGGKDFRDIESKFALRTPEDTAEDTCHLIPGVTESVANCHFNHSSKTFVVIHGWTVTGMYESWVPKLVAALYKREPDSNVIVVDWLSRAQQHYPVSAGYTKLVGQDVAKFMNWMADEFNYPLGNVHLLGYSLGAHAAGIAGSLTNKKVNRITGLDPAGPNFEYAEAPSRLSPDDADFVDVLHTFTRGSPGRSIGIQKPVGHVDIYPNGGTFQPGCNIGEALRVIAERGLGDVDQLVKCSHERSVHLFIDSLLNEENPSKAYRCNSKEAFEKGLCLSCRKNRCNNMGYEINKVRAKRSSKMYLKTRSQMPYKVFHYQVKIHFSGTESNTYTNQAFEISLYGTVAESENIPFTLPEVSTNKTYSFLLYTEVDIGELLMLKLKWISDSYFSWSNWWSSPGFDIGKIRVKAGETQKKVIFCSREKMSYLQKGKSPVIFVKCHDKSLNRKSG
Description: LPL is inactivated by angiopoietin-like 4 (ANGPTL4). Compounds of the present disclosure were for activity using the following protection assay. Briefly, the assay was performed in a black opaque 96-well microtiter plate with final volume of 100 μL using a buffer consisting of 50 mM HEPES (pH 7.2), 150 mM NaCl and 0.03% Triton X-100. Compounds were prepared as 10 mM stocks in DMSO, with subsequent serial dilutions performed in DMSO. Two microliters of test compounds were added to the microtiter plate, followed by 49-PL of LPL (native bovine milk protein affinity purified using heparin-affinity chromatography) in assay buffer. The plate contents were mixed using an orbital shaker and allowed to incubate for 5 minutes at room temperature. The enzymatic assay was initiated by the addition of a mixture of 49 μL of 50 μM resorufin butyrate (Santa Cruz #sc-208302; prepared from a 10 mM DMSO stock) and ANGPTL4 (N-terminal GST construct consisting of residues 26-164 expressed in E. coli) in assay buffer. The final concentrations of LPL and ANGPTL4 were 2.5 nM and 20 nM, respectively. The assay was allowed to proceed at 30° C. for 25 minutes with kinetic monitoring (Ex560/Em585) followed by an endpoint reading which was used for analysis.
Data was analyzed in Graphpad Prism (version 6.0, GraphPad Software, Inc., San Diego, CA) using a variable slope four parameter fit of the equation:
Y=Bottom+(Top-Bottom)/(1+10^((Log EC50−X)*HillSlope)),
where X is the concentration of test compound, Y corresponds to the amount of product expressed in relative fluorescence units, and Top and Bottom refer to the plateaus of the curve. Percent activation (protection) of test compound was calculated relative to zero effect wells (ZEW; LPL, ANGPTL4 and substrate) and maximum effect wells (MEW; LPL plus substrate): ((test well−ZEW)/(MEW−ZEW))*100.

C57BL/6 mice = assay: Oral fat tolerance test (postprandial triglyceridaemia after olive oil bolus); format: in vivo; conditions: overnight-fasted C57BL/6 mice, compound IP 1 h before 10 mL/kg olive oil, bled at 1, 2 and 3.5 h
Description: To examine to effects of test compounds on postprandial triglycerdemia, 5-7 week old C57BL/6 mice were fasted overnight (18 hours) on non-nutritive bedding (Alpha-Dri). Following the overnight fast, the mice are bled via retro-orbital sinus (25 μL) using microcapillaries (t-1 hr sample). The LPL activator test compound was then administered intraperitoneally (IP) in a dose volume of 10 ml/kg. One hour later the mice were bled for the t=0 timepoint. The mice were then immediately dosed with a 10 mL/kg oral bolus of olive oil. The mice were subsequently bled at 1-, 2-, and 3.5-hours post-olive oil administration.
Whole blood samples were collected into tubes containing 0.125% EDTA solution in saline. Diluted plasma samples were analyzed for triglyceride levels using Infinity Triglyceride reagent (Thermo) on a microtiter plate. Briefly, 10 μL of diluted sample was added the plate. 200 μL of the reagent was added and the plate was incubated for 10 minutes at 37° C. The plate was then read at 550 nm on a Molecular Devices M5 Spectrophotometer (San Jose, CA). The concentration of triglycerides in the sample was determined using a standard curve made using a dilution of triglyceride standard (Sigma-Aldrich, St. Louis, MO) using the Softmax software from Molecular Devices. All graphing and subsequent area under-the-curve and statistical analysis (Student's t Test) is performed using GraphPad Prism (version 8.0, GraphPad Software, Inc., San Diego, CA).

EC50 [1] [µM] | SMILES | EC50 (LPL:sGPIHBPI complex) [µM] | hypertriglyceridemia response to oral olive oil gavage (plasma triglycerides) (C57BL/6 mice)
7.98 | Cc1ccc(NC(=O)c2cc(N3Cc4cc(-c5nnn[nH]5)ccc4C3=O)ccc2N2CCCCC2)cc1 [Compound 170, 5-(1-oxo-5-(1H-tetrazol-5-yl)isoindolin-2-yl)-2-(piperidin-1-yl)-N-(p-tolyl)benzamide] |  | blunts hypertriglyceridemia response in a dose-dependent fashion
13.4 | Cc1ccc(NC(=O)c2cc(NCc3ccc(-c4nnn[nH]4)cc3)ccc2N2CCCCC2)cc1 [Compound 175, 5-((4-(1H-tetrazol-5-yl)benzyl)amino)-2-(piperidin-1-yl)-N-(p-tolyl)benzamide] |  | blunts hypertriglyceridemia response in a dose-dependent fashion
5.74 | Cc1ccc(NC(=O)c2cc(NC(=O)c3ccccc3C(=O)O)ccc2NC2CCCC2)cc1Cl [Compound 176, 2-((3-((3-chloro-4-methylphenyl)carbamoyl)-4-(cyclopentylamino)phenyl)carbamoyl)benzoic acid] |  | blunts hypertriglyceridemia response in a dose-dependent fashion

Further lines, the compound ahead of its results:

SMILES | EC50 [1] [µM] | EC50 (LPL:sGPIHBPI complex) [µM] | hypertriglyceridemia response to oral olive oil gavage (plasma triglycerides) (C57BL/6 mice)
O=C(O)Cc1cc(F)ccc1NC(=O)c1ccc(N2CCCCC2)c(NS(=O)(=O)c2nn(CC(F)(F)F)c3ccccc23)c1 [Compound 114, 2-(5-fluoro-2-(4-(piperidin-1-yl)-3-((1-(2,2,2-trifluoroethyl)-1H-indazole)-3-sulfonamido)benzamido)phenyl)acetic acid] |  | > 25 | 
O=C(O)Cc1cc(F)ccc1NC(=O)c1ccc(N2CCCCC2)c(NC(=O)c2nn(CC(F)(F)F)c3ccccc23)n1 [Compound 45, 2-(5-fluoro-2-(5-(piperidin-1-yl)-6-(1-(2,2,2-trifluoroethyl)-1H-indazole-3-carboxamido)picolinamido)phenyl)acetic acid] |  | > 25 | 
CCC1CCCCN1c1ccc(C(=O)Nc2ccc(F)cc2CC(=O)O)cc1NC(=O)c1nn(CC(F)(F)F)c2ccccc12 (centres unmarked) [Example 72] |  | 2.7 | 
O=C(O)Cc1cc(F)ccc1NC(=O)c1ccc(N2CCCOCC2)c(NC(=O)c2nn(CC(F)(F)F)c3ccccc23)c1 [Example 63] |  | 10 | 
CC1CCCCN1c1ccc(C(=O)Nc2ccc(F)cc2CC(=O)O)cc1NC(=O)c1nn(CC(F)(F)F)c2ccccc12 (centres unmarked) [Example 67] |  | 2.5 | 
O=C(O)Cc1cccc(Cl)c1NC(=O)c1ccc(N2CCCCC2)c(NC(=O)c2nn(CC(F)(F)F)c3ccccc23)c1 [Compound 25, 2-(3-chloro-2-(4-(piperidin-1-yl)-3-(1-(2,2,2-trifluoroethyl)-1H-indazole-3-carboxamido)benzamido)phenyl) acetic acid] |  | 5 | 
CC1CCN(c2ccc(C(=O)Nc3ccc(F)cc3CC(=O)O)cc2NC(=O)c2nn(CC(F)(F)F)c3ccccc23)CC1 [Example 64] |  | 1.2 | 
CC1CCCN(c2ccc(C(=O)Nc3ccc(F)cc3CC(=O)O)cc2NC(=O)c2nn(CC(F)(F)F)c3ccccc23)C1 (centres unmarked) [Example 73] |  | 2.2 | 
Cc1nc(Cn2nc(C(=O)Nc3cc(C(=O)Nc4ccc(F)cc4CC(=O)O)ccc3N3CCCCC3)c3ccccc32)no1 [Compound 125, 2-(5-fluoro-2-(3-(1-((5-methyl-1,2,4-oxadiazol-3-yl)methyl)-1H-indazole-3-carboxamido)-4-(piperidin-1-yl)benzamido)phenyl)acetic acid] |  | 6.4 | 
O=C(O)Cc1cc(F)ccc1NC(=O)c1ccc(N2CCCCC2)c(NC(=O)c2nn(CCN3CCOCC3)c3ccccc23)c1 [Compound 120, 2-(5-fluoro-2-(3-(1-(2-morpholinoethyl)-1H-indazole-3-carboxamido)-4-(piperidin-1-yl)benzamido)phenyl)acetic acid] |  | > 25 | 
O=C(O)Cc1cc(F)ccc1NC(=O)c1ccc(N2CCCCC2)c(NC(=O)Nc2nn(CC(F)(F)F)c3ccccc23)c1 [Compound 129, 2-(5-fluoro-2-(4-(piperidin-1-yl)-3-(3-(1-(2,2,2-trifluoroethyl)-1H-indazol-3-yl)ureido)benzamido)phenyl)acetic acid] |  | 3.3 | 
CCn1nc(C(=O)Nc2cc(C(=O)Nc3ccccc3CC(=O)NS(C)(=O)=O)ccc2N2CCCCC2)c2ccccc21 [Compound 172, 1-ethyl-N-(5-((2-(2-(methylsulfonamido)-2-oxoethyl)phenyl)carbamoyl)-2-(piperidin-1-yl)phenyl)-1H-indazole-3-carboxamide] | 7.5 |  | blunts hypertriglyceridemia response in a dose-dependent fashion
O=C(O)Cc1cc(F)ccc1NC(=O)c1ccc(N2CCCCC2)c(NC(=O)c2nn(CC3COCCO3)c3ccccc23)c1 (centres unmarked) [Compound 132, 2-(2-(3-(1-((1,4-dioxan-2-yl)methyl)-1H-indazole-3-carboxamido)-4-(piperidin-1-yl)benzamido)-5-fluorophenyl)acetic acid] |  | 7.4 | 

From patent publication US20250092014A1, “COMPOUNDS AND METHODS OF ACTIVATING LIPOPROTEIN LIPASE” (Metrea Biosciences, Inc., priority 2021, published 2025)
